Key:
[1] = system: Hep2,2,15; settings: Hep2,2,15, Table 1; cited from earlier work
[2] = system: DLD (DLD-1): human colon adenocarcinoma; assay: In vitro anticancer assay (cytotoxicity), solid tumor cells
[3] = system: NCI (NCI-H661): human lung large cell carcinoma; assay: as above
[4] = system: KB cell; settings: Table 1; cited from earlier work

For `N#Cc1ccccc1C#C/C=C\C#CCCCOC1CCCCO1` (stereo not shown) [Compound 2, 2-(9-(Tetrahydropyranyloxy)-3(Z)-nonen-1,5-diynyl)-benzonitrile], the IC50 [1] is given as greater than 10 µM, the “IC50 Values of Cytotoxicities” value [2] is given as “— (“—” means IC50 > 20 μg/ml)” and the “IC50 Values of Cytotoxicities” value [3] is given as “— (“—” means IC50 > 20 μg/ml)”. For the same compound, the IC50 [4] was less than 0.01 µM.

— patent US7332623B2 (Kaohsiung Medical University, priority 2003, dated 2008)
